Test results published in patent US6737383B1, “Herbicidal oxadiazolidines” (priority 1999, dated 2004).

Experiments:
[1] = test system: bedstraw; assay: Test B pre/postemergence bedstraw; format: in vivo, Galium aparine; conditions: Preemergence; for Bedstraw plant response rating: scale 0 to 10, 0 is no effect, 10 is complete control
In short: (§1)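 Response is a visual 0-to-10 score relative to untreated plants, where 0 means no effect and 10 means complete control, taken twelve to sixteen days after application. Treatments went onto soil at planting and onto foliage of 1- to 4-leaf plants, using a surfactant-containing non-phytotoxic solvent.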

[2] = test system: surinam grass; assay: Test B pre/postemergence surinam grass; format: in vivo, Brachiaria decumbens
In short: as §1

[3] = test system: giant foxtail; assay: Test B pre/postemergence giant foxtail; format: in vivo, Setaria faberii
In short: as §1

[4] = test system: blackgrass; assay: Test B pre/postemergence blackgrass; format: in vivo, Alopecurus myosuroides
In short: as §1

[5] = test system: soybean; assay: Test B pre/postemergence soybean; format: in vivo, Glycine max
In short: as §1

[6] = test system: velvetleaf; assay: Test B pre/postemergence velvetleaf; format: in vivo, Abutilon theophrasti
In short: as §1

[7] = test system: rape; assay: Test B pre/postemergence rape; format: in vivo, Brassica napus
In short: as §1

[8] = test system: wild oat; assay: Test B pre/postemergence wild oat; format: in vivo, Avena fatua
In short: as §1

[9] = test system: cocklebur; assay: Test B pre/postemergence cocklebur; format: in vivo, Xanthium strumarium
In short: as §1

[10] = test system: corn; assay: Test B pre/postemergence corn; format: in vivo, Zea mays
In short: as §1

[11] = test system: purple nutsedge; assay: Test B pre/postemergence purple nutsedge; format: in vivo, Cyperus rotundus
In short: as §1

[12] = test system: crabgrass; assay: Test B pre/postemergence crabgrass; format: in vivo, Digitaria sanguinalis
In short: as §1

[13] = test system: pigweed; assay: Test B pre/postemergence pigweed; format: in vivo, Amaranthus retroflexus
In short: as §1

[14] = test system: sugar beet; assay: Test B pre/postemergence sugar beet; format: in vivo, Beta vulgaris
In short: as §1

[15] = test system: wheat; assay: Test B pre/postemergence wheat; format: in vivo, Triticum aestivum
In short: as §1

[16] = test system: morningglory; assay: Test B pre/postemergence morningglory; format: in vivo, Ipomoea hederacea
In short: as §1

[17] = Postemergence, Rate 62 g/ha, scale of 0 to 10, 0 is no effect, 10 is complete control
[18] = Postemergence, Rate 125 g/ha, scale 0 to 10, 0 is no effect, 10 is complete control
[19] = Postemergence, Rate 500 g/ha, scale 0 to 10, 0 is no effect, 10 is complete control
[20] = Preemergence, Rate 62 g/ha, scale of 0 to 10 where 0 is no effect and 10 is complete control
[21] = Preemergence, Rate 250 g/ha, scale 0 to 10, 0 is no effect, 10 is complete control
[22] = Preemergence, Rate 125 g/ha, scale 0 to 10, 0 is no effect, 10 is complete control
[23] = Preemergence, Rate 500 g/ha, scale of 0 to 10 where 0 is no effect and 10 is complete control
[24] = Postemergence, Rate 250 g/ha, scale 0 to 10

With COCCOCn1c(=O)on(C(=O)N(c2ccc(F)cc2F)C(C)C)c1=O [Compound 505] the “Plant response rating, Bedstraw” value ([1]; Rate 62 g/ha, scale of 0 to 10 where 0 is no effect and 10 is complete control) was 0, the “Bedstraw plant response rating” value ([1]; Rate 125 g/ha) was 0 and the “Bedstraw plant response rating” value ([1]; Rate 250 g/ha) was 8. The “Bedstraw plant response rating” value ([1]; Rate 500 g/ha) was 9, the “B. signalgrass plant response rating” value [2, 17] was 0 and the “B. signalgrass plant response rating” value [2, 18] was 3. For the same compound, the “B. signalgrass plant response rating” value ([2]; Postemergence, Rate 250 g/ha, scale 0 to 10, 0 no effect, 10 complete control) was 8, the “Plant response rating, B. signalgrass” value [2, 19] was 8 and the “Plant response rating, B. signalgrass” value [2, 20] was 0. The “B. signalgrass plant response rating” value [2, 21] was 2, the “B. signalgrass plant response rating” value ([2]; Preemergence, Rate 500 g/ha, scale 0 to 10, 0 is no effect, 10 is complete control) was 6 and the “Giant foxtail plant response rating” value [3, 17] was 8. The “Giant foxtail plant response rating” value [3, 18] was 8, the “Plant response rating, Giant foxtail” value [3, 19] was 9 and the “Plant response rating, Giant foxtail” value [3, 20] was 9. The “Giant foxtail plant response rating” value [3, 22] was 9, the “Giant foxtail plant response rating” value [3, 23] was 10 and the “Blackgrass plant response rating” value [4, 17] was 2. For the same compound, the “Blackgrass plant response rating” value [4, 18] was 4, the “Blackgrass plant response rating” value [4, 24] was 7 and the “Plant response rating, Blackgrass” value [4, 19] was 7. The “Plant response rating, Blackgrass” value [4, 20] was 0, the “Blackgrass plant response rating” value [4, 22] was 6 and the “Blackgrass plant response rating” value [4, 21] was 7. For the same compound, the “Blackgrass plant response rating” value [4, 23] was 6, the “Soybean plant response rating” value [5, 17] was 1 and the “Soybean plant response rating” value [5, 18] was 2. The “Plant response rating, Soybean” value [5, 19] was 5, the “Plant response rating, Soybean” value [5, 20] was 0 and the “Soybean plant response rating” value [5, 22] was 0. The “Soybean plant response rating” value [5, 23] was 5, the “Velvetleaf plant response rating” value [6, 17] was 0 and the “Velvetleaf plant response rating” value [6, 18] was 0. The “Plant response rating, Velvetleaf” value [6, 19] was 4, the “Plant response rating, Velvetleaf” value [6, 20] was 0 and the “Velvetleaf plant response rating” value [6, 22] was 2. The “Velvetleaf plant response rating” value [6, 23] was 10, the “Rape plant response rating” value [7, 17] was 0 and the “Rape plant response rating” value [7, 18] was 0. For the same compound, the “Plant response rating, Rape” value [7, 19] was 2, the “Plant response rating, Rape” value [7, 20] was 4 and the “Rape plant response rating” value [7, 22] was 4. For the same compound, the “Rape plant response rating” value [7, 23] was 9, the “Wild oats plant response rating” value [8, 17] was 0 and the “Wild oats plant response rating” value [8, 18] was 2. The “Plant response rating, Wild oats” value [8, 19] was 3, the “Plant response rating, Wild oats” value [8, 20] was 2 and the “Wild oats plant response rating” value [8, 22] was 2. For the same compound, the “Wild oats plant response rating” value [8, 23] was 9, the “Cocklebur plant response rating” value [9, 17] was 0 and the “Cocklebur plant response rating” value [9, 18] was 0. The “Cocklebur plant response rating” value [9, 24] was 0, the “Plant response rating, Cocklebur” value [9, 19] was 4 and the “Plant response rating, Cocklebur” value [9, 20] was 0. For the same compound, the “Cocklebur plant response rating” value [9, 22] was 0, the “Cocklebur plant response rating” value [9, 21] was 0 and the “Cocklebur plant response rating” value [9, 23] was 2. For the same compound, the “Corn plant response rating” value [10, 17] was 0, the “Corn plant response rating” value [10, 18] was 3 and the “Corn plant response rating” value [10, 24] was 6. For the same compound, the “Plant response rating, Corn” value [10, 19] was 6, the “Plant response rating, Corn” value [10, 20] was 2 and the “Corn plant response rating” value [10, 22] was 2. For the same compound, the “Corn plant response rating” value [10, 23] was 6, the “Nutsedge plant response rating” value [11, 17] was 0 and the “Nutsedge plant response rating” value [11, 18] was 2. For the same compound, the “Plant response rating, Nutsedge” value [11, 19] was 2, the “Plant response rating, Nutsedge” value [11, 20] was 3 and the “Nutsedge plant response rating” value [11, 22] was 10. For the same compound, the “Nutsedge plant response rating” value [11, 23] was 8, the “Crabgrass plant response rating” value [12, 17] was 7 and the “Crabgrass plant response rating” value [12, 18] was 7. The “Crabgrass plant response rating” value [12, 24] was 9, the “Plant response rating, Crabgrass” value [12, 19] was 9 and the “Crabgrass plant response rating” value [12, 22] was 6. The “Crabgrass plant response rating” value [12, 23] was 8, the “Redroot pigweed plant response rating” value [13, 17] was 0 and the “Redroot pigweed plant response rating” value [13, 18] was 0. The “Plant response rating, Redroot pigweed” value [13, 19] was 9, the “Plant response rating, Redroot pigweed” value [13, 20] was 9 and the “Redroot pigweed plant response rating” value [13, 22] was 10. For the same compound, the “Redroot pigweed plant response rating” value [13, 23] was 10, the “Sugarbeets plant response rating” value [14, 17] was 3 and the “Sugarbeets plant response rating” value [14, 18] was 5. The “Plant response rating, Sugarbeets” value [14, 19] was 9, the “Plant response rating, Sugarbeets” value [14, 20] was 3 and the “Sugarbeets plant response rating” value [14, 22] was 3. The “Sugarbeets plant response rating” value [14, 23] was 8, the “Wheat plant response rating” value [15, 17] was 0 and the “Wheat plant response rating” value [15, 18] was 2. For the same compound, the “Plant response rating, Wheat” value [15, 19] was 4, the “Plant response rating, Wheat” value [15, 20] was 3 and the “Wheat plant response rating” value [15, 22] was 7. For the same compound, the “Wheat plant response rating” value [15, 23] was 8, the “Morningglory plant response rating” value [16, 17] was 5 and the “Morningglory plant response rating” value [16, 18] was 5. For the same compound, the “Plant response rating, Morningglory” value [16, 19] was 7, the “Plant response rating, Morningglory” value [16, 20] was 0 and the “Morningglory plant response rating” value [16, 22] was 0. For the same compound, the “Morningglory plant response rating” value [16, 23] was 3.
